In patent publication US20030194738A1, “Antisense oligonucleotide compositions and methods for the modulation of activating protein 1” (priority 1997, published 2003):
Values joined by “and” are separate entries in the source; they are usually repeats but may differ in a detail not shown here. Equal entries are not always repeated. “Also recorded” adds a separate entry of the source.

Columns and labels:
c-jun mRNA [1] = experiment: c-jun mRNA levels in PDGF-stimulated rat aortic smooth muscle cells; format: cell-based; settings: 200 nM for 4 hours; 2 and 6 hours after exposure to PDGF (10 ng/ml); versus untreated or ISIS 12898-treated cells
Description: (§1) In order to evaluate the effect of AP-1 modulation on cell cycle progression, the following study was performed. Cultured rat aortic smooth muscle (RASM) cells are stimulated to proliferate upon contact with platelet-derived growth factor (PDGF). Primary RASM cells (passages 6-8) were synchronized by incubation for 48 hours in DMEM containing 0.1% FBS. The cells were treated for 4 hours with 200 nM ISIS 12633 (SEQ ID NO:78), a 20-mer phosphorothioate oligonucleotide complementary to a portion of the 3′ UTR of rat c-jun mRNA, or ISIS 12898 (SEQ ID NO:92), a scrambled control of ISIS 12633. Cells were then contacted with PDGF (10 ng/ml) (R&D Systems, Minneapolis, Minn.), and cell cycle progression was assessed by FACS analysis 24 hours later. At 2 and 6 hours after exposure to PDGF, c-jun mRNA levels were markedly less in ISIS 12633-treated cells as compared to untreated cells or cells treated with ISIS 12898.

[2] = test system: rat aortic smooth muscle (RASM) cells; experiment: Cell cycle progression of PDGF-stimulated rat aortic smooth muscle cells, FACS analysis; format: cell-based; settings: 200 nM; 24 hours after PDGF
Description: as §1

rat c-jun mRNA = experiment: Rat c-jun mRNA expression in rat A10 cells; format: cell-based
Description: Tables 13 and 14 show the sequences of oligonucleotides designed to modulate rat c-jun and c-fos mRNA expression, respectively. For the nucleotide sequence of the rat c-jun gene, see Genbank accession No. X17163/RSJUNAP1 and Saaki et al., Cancer Res., 1989, 49:5633. The nucleotide sequence of the rat c-fos gene is described in Genbank accession No. X06769/RNCFOSR and Curran et al., Oncogene, 1987, 2:79. Oligonucleotide activities were evaluated as described infra in Example 2 et seq. with the exception that rat A10 cells (available from, inter alia, the American Type Culture Collection, Rockville, Md., as ATCC No. CRL-1476) were used instead of human A549 cells. Due to the high degree of homology between human and rat c-jun and c-fos nucleotide sequences, probes derived from the human genes were used to detect the rat messages.
Another preferred oligonucleotide targeted to rat AP-1 subunits is ISIS 12635 (SEQ ID NO:80).

c-jun mRNA [3] = experiment: c-jun mRNA expression in TPA-induced A549 cells, Northern blotting; format: cell-based, human; settings: A549 cells
Description: In order to evaluate the activity of potential c-fos and c-jun modulating oligonucleotides, A549 cells were grown in T-75 flasks until 80-90% confluent. (Cell line A549 is available from, inter alia, the American Type Culture Collection, Rockville, Md., as ATCC No. CCL-185.) At this time, the cells were washed twice with 10 mL of media (DMEM), followed by the addition of 5 mL of DMEM containing 20 μg/mL of LIPOFECTIN™ (i.e., DOTMA/DOPE (N-[1-(2,3-dioleyloxy)propyl]-N,N,N-[…] chloride/dioleoylphosphatidyl ethanolamine)). […] After 4 hours at 37° C., the medium was replaced with DMEM containing 10% serum. At this point, 1 μM 12-O-tetradecanoylphorbol 13-acetate (TPA) was added to induce expression of c-fos and c-jun. Cells were extracted in guanidinium one hour later, and the c-fos and c-jun mRNA expression was determined by Northern blotting. Probes for human c-jun and c-fos were PCR products prepared using primers based on the published sequences thereof (respectively, Hattori et al., Proc. Natl. Acad. Sci. U.S.A., 1988, 85:9148, and Van Straaten et al., Proc. Natl. Acad. Sci. U.S.A., 1983, 80:3183).

c-fos mRNA [4] = experiment: c-fos mRNA expression in TPA-induced A549 cells, Northern blotting; format: cell-based, human
Description: In order to evaluate the activity of potential c-fos and c-jun modulating oligonucleotides, A549 cells were grown in T-75 flasks until 80-90% confluent. (Cell line A549 is available from, inter alia, the American Type Culture Collection, Rockville, Md., as ATCC No. CCL-185.) At this time, the cells were washed twice with 10 mL of media (DMEM), followed by the addition of 5 mL of DMEM containing 20 μg/mL of LIPOFECTIN™ (i.e., DOTMA/DOPE (N-[1-(2,3-dioleyloxy)propyl]-N,N,N-[…] chloride/dioleoylphosphatidyl ethanolamine)). The oligonucleotides were added from a 10 μM stock solution to a final concentration of 400 nM, and the two solutions were mixed by swirling the flasks. After 4 hours at 37° C., the medium was replaced with DMEM containing 10% serum. At this point, 1 μM 12-O-tetradecanoylphorbol 13-acetate (TPA) was added to induce expression of c-fos and c-jun. Cells were extracted in guanidinium one hour later, and the c-fos and c-jun mRNA expression was determined by Northern blotting. Probes for human c-jun and c-fos were PCR products prepared using primers based on the published sequences thereof (respectively, Hattori et al., Proc. Natl. Acad. Sci. U.S.A., 1988, 85:9148, and Van Straaten et al., Proc. Natl. Acad. Sci. U.S.A., 1983, 80:3183).
Finally, it can also be seen from Table 5 that neither active oligonucleotide has any detectable effect on mRNA levels of the other active oligonucleotide's target.
Once oligonucleotides that modulate c-Fos or c-Jun are identified, derivative or modified oligonucleotides having the same sequence thereas are prepared. In order to evaluate the effect of chemical modifications to oligonucleotides to c-fos and c-jun, the modified oligonucleotides described in Tables 8 and 9 were prepared. The effect of the c-fos-targeted oligonucleotides on c-fos RNA levels were evaluated as described in Examples 2-3. […] Other modified oligonucleotides of the invention are evaluated in like fashion. In order to evaluate the effect of PNA antisense analogs, the PNA analogs of the invention are introduced into appropriate cell lines by microinjection according to the method of Hanvey et al. (Science, 1992, 258:1481). Intracellular delivery of PNA analogs is confirmed by the use of a fluorescently tagged PNA antisense analog conjugate such as, e.g., ISIS 14240.

A549 tumors = experiment: Growth of A549 tumor fragments implanted subcutaneously in nude mice; format: in vivo; settings: 25 mg/kg daily i.v. for three weeks; for Mean Tumor Weight: nude mice
Description: In order to evaluate the in vivo activity of c-fos oligonucleotides, 25 mg of tumor fragments of A549 tumors were implanted subcutaneously in nude mice (n=6). ISIS 10639 was administered daily, i.v., for three weeks. The oligonucleotide dosage was 25 mg/kg. […] By day 34, saline-treated tumors were 0.56±0.12 g by weight, while tumors treated with ISIS 10639 were 0.31±0.1 g by weight.

c-Fos protein = c-Fos protein levels in TPA-induced A549 cells, immunoblot; format: cell-based, human; settings: TPA (1 uM) for three hours
Description: The ability of the c-fos active oligonucleotide ISIS 10639 to reduce expression of the c-Fos protein was examined as follows. A549 cells were treated with oligonucleotides as in Examples 2-3, except that induction of c-Fos was effected by treatment of cells with TPA (1 uM) for three hours. At this time, whole cell protein was extracted in SDS (sodium dodecyl sulfate) buffer. Samples of extracts were electrophoresed, transferred to nitrocellulose filters which were immunoblotted using a c-Fos-specific antibody (Santa Cruz AB, Santa Cruz, Calif.).

c-fos mRNA [5] = experiment: c-fos mRNA expression in TPA-induced A549 cells, Northern blotting; format: cell-based, human; settings: TPA induction, 1 hour

In the case of “TTT-TCT-TCC-ACT-GCC-CCT-CA (TTTTCTTCCACTGCCCCTCA; DNA, all phosphorothioate, methylation of C not given here) [ISIS 12633]”, the “c-jun mRNA levels (in words)” value (c-jun mRNA [1]) is reported as “markedly less”, the “proportion of cells in the G2/M interface (in words)” value [2] is reported as “significant decrease” and the “modulation of rat c-jun (in words)” value (rat c-jun mRNA) is reported as “active modulator”.
With “AAG-TCC-TTG-AGG-CCC-ACA-GC (AAGTCCTTGAGGCCCACAGC; antisense; all phosphorothioate, sugars by position and methylation of C not given here) [ISIS 10639]” the “effect on c-jun mRNA levels during TPA induction (in words)” value (c-jun mRNA [3]) was “no detectable effect”, the “c-jun (mRNA level, specificity experiment)” value (c-jun mRNA [3]; Table 5, TPA - no oligo = 100, basal = 23) was 97 and the “c-fos mRNA % CONTROL” value (c-fos mRNA [4]; 400 nM oligonucleotide with LIPOFECTIN, control is TPA induction, at 1 hour, in A549 cells) was 9 % CONTROL. For the same substance, the “inhibition of c-fos mRNA expression” value (c-fos mRNA [4]; 400 nM oligonucleotide, TPA-induced A549 cells) was 91%, the “c-fos mRNA LEVELS (% CONTROL)” value (c-fos mRNA [4]; 400 nM oligonucleotide, TPA induction, 1 hour, A549 cells) was 9 % CONTROL and the “effect on c-fos mRNA levels during TPA induction (in words)” value (c-fos mRNA [4]; A549 cells) was “dose-dependent; also recorded: potent and specific inhibition”. For the same substance, the “c-fos (mRNA level, specificity experiment)” value (c-fos mRNA [4]; Table 5, TPA - no oligo = 100, basal = 5, A549 cells) was 9, the “c-fos (expression, modified oligonucleotides)” value (c-fos mRNA [4]; Table 10, TPA - no oligo = 100, basal = 3, A549 cells) was 9 and the “tumor growth rate (in words)” value (A549 tumors; versus saline) was “substantial reduction”. The “Mean Tumor Weight” value (A549 tumors; Day 17) was 0.105 g, the “Mean Tumor Weight” value (A549 tumors; Day 20) was 0.138 g and the “Mean Tumor Weight” value (A549 tumors; Day 27) was 0.225 g. For the same substance, the “Mean Tumor Weight” value (A549 tumors; Day 34, 25 mg/kg) was 0.31 ± 0.1 g and 0.310 g, the “c-Fos protein level (in words)” value (c-Fos protein; A549 cells) was “basal levels” and the “c-Fos (protein level)” value (c-Fos protein; Table 7, TPA - no oligo = 100, basal = 21) was 19. The “c-fos mRNA LEVELS (% CONTROL)” value (c-fos mRNA [5]; 50 nM oligonucleotide) was 64 % CONTROL, the “c-fos mRNA LEVELS (% CONTROL)” value (c-fos mRNA [5]; 100 nM oligonucleotide) was 46 % CONTROL and the “c-fos mRNA LEVELS (% CONTROL)” value (c-fos mRNA [5]; 200 nM oligonucleotide) was 20.5 % CONTROL.
